Where two headings read alike, the source gives them in different places.
Assays:
[1] = system: E. coli AG100; assay: EtBr accumulation by real-time fluorometry; settings: EtBr 1 µg/ml + inhibitor 80 µM
[2] = system: E. coli AG100A; settings: EtBr […] + inhibitor 20 µM
[3] = system: E. coli AG100; assay: Membrane potential assay (BacLight, DiOC2(3))
[4] = system: E. coli AG100tet; assay: microbe, parasite or virus in culture; format: cell-based, Escherichia coli; settings: AG100tet
Procedure: The assays were performed in triplicate and the MIC value was given as result of at least two concordant values.

[5] = system: E. coli AG100; assay: EtBr efflux by real-time fluorometry; settings: for EtBr fluorescence (Channel Cycling A.530/585hp): 80 µM, + glucose
[6] = system: E. coli AG100A; assay: microbe, parasite or virus in culture; format: cell-based, Escherichia coli
Procedure: The minimum inhibitory concentrations (MICs) were determined using the broth microdilution method according to the CLSI guidelines ([Clinical and Laboratory Standards Institute, 2014]). […] Two-fold serial dilutions of the compounds were made to achieve the following concentrations: 320 µM–40 µM. The MICs were determined as the lowest concentration at which no visible growth was observed after 18 h of incubation at 37 °C. The assays were performed in triplicate and the MIC value was given as result of at least two concordant values.

Structure (SMILES): CCCOc1ccc(-c2cc(OCCN3CCNCC3)c3ccccc3n2)cc1 [PQQ4R, 4-(2-(piperazin-1-yl)ethoxy)-2-(4-propoxyphenyl) quinolone]
- EtBr fluorescence ([1]; cycle 1): 8.891
- EtBr fluorescence ([1]; cycle 2): 15.958
- EtBr fluorescence ([1]; cycle 3): 24.4435
- EtBr fluorescence ([1]; cycle 4): 32.9586
- EtBr fluorescence ([1]; cycle 5): 42.0049
- EtBr fluorescence ([1]; cycle 6): 50.7014
- EtBr fluorescence ([1]; cycle 7): 59.8624
- EtBr fluorescence ([1]; cycle 8): 68.0874
- EtBr fluorescence ([1]; cycle 9): 75.8019
- EtBr fluorescence ([1]; cycle 10): 82.5362
- EtBr fluorescence ([1]; cycle 11): 89.2
- EtBr fluorescence ([1]; cycle 12): 95.2197
- EtBr fluorescence ([1]; cycle 13): 100
- EtBr fluorescence ([1]; cycle 14): 100
- EtBr fluorescence ([1]; cycle 15): 100
- EtBr fluorescence ([1]; cycle 16): 100
- EtBr fluorescence ([1]; cycle 17): 100
- EtBr fluorescence ([1]; cycle 18): 100
- EtBr fluorescence ([1]; cycle 19): 100
- EtBr fluorescence ([1]; cycle 20): 100
- EtBr fluorescence ([1]; cycle 21): 100
- EtBr fluorescence ([1]; cycle 22): 100
- EtBr fluorescence ([1]; cycle 23): 100
- EtBr fluorescence ([1]; cycle 24): 100
- EtBr fluorescence ([1]; cycle 25): 100
- EtBr fluorescence ([1]; cycle 26): 100
- EtBr fluorescence ([1]; cycle 27): 100
- EtBr fluorescence ([1]; cycle 28): 100
- EtBr fluorescence ([1]; cycle 29): 100
- EtBr fluorescence ([1]; cycle 30): 100
- EtBr fluorescence ([2]; cycle 1): 3.005
- EtBr fluorescence ([2]; cycle 2): 3.689
- EtBr fluorescence ([2]; cycle 3): 4.425
- EtBr fluorescence ([2]; cycle 4): 5.09
- EtBr fluorescence ([2]; cycle 5): 5.663
- EtBr fluorescence ([2]; cycle 6): 6.261
- EtBr fluorescence ([2]; cycle 7): 6.784
- EtBr fluorescence ([2]; cycle 8): 7.347
- EtBr fluorescence ([2]; cycle 9): 7.957
- EtBr fluorescence ([2]; cycle 10): 8.552
- EtBr fluorescence ([2]; cycle 11): 9.107
- EtBr fluorescence ([2]; cycle 12): 9.505
- EtBr fluorescence ([2]; cycle 13): 10.1469
- EtBr fluorescence ([2]; cycle 14): 10.666
- EtBr fluorescence ([2]; cycle 15): 11.2994
- EtBr fluorescence ([2]; cycle 16): 11.7134
- EtBr fluorescence ([2]; cycle 17): 12.3988
- EtBr fluorescence ([2]; cycle 18): 12.7522
- EtBr fluorescence ([2]; cycle 19): 13.174
- EtBr fluorescence ([2]; cycle 20): 13.8181
- EtBr fluorescence ([2]; cycle 21): 14.2909
- EtBr fluorescence ([2]; cycle 22): 14.7163
- EtBr fluorescence ([2]; cycle 23): 15.2505
- EtBr fluorescence ([2]; cycle 24): 16.0503
- EtBr fluorescence ([2]; cycle 25): 16.1642
- EtBr fluorescence ([2]; cycle 26): 16.8061
- EtBr fluorescence ([2]; cycle 27): 17.3806
- EtBr fluorescence ([2]; cycle 28): 17.8352
- EtBr fluorescence ([2]; cycle 29): 18.1109
- EtBr fluorescence ([2]; cycle 30): 18.6334
- membrane depolarization ([3]; 80 µM): 83%
- membrane depolarization ([3]; 160 μM (1/4 MIC)): 85%
- membrane depolarization ([3]; 320 μM (1/2 MIC)): 89%
- membrane depolarization ([3]; 640 μM (MIC)): 91%
- MIC of EtBr in presence of the efflux inhibitor ([4]; inhibitor 40 μM): 512 µg/mL
- MIC of OFX in presence of the efflux inhibitor ([4]; inhibitor 40 μM): 0.5 µg/mL
- MIC of OXA in presence of the efflux inhibitor ([4]; inhibitor 40 μM): >2,048 μg/ml
- MIC of TET in presence of the efflux inhibitor ([4]; inhibitor 40 μM): 16 µg/mL
- MIC of EtBr in presence of the efflux inhibitor ([4]; inhibitor 80 μM): 512 µg/mL
- MIC of OFX in presence of the efflux inhibitor ([4]; inhibitor 80 μM): 0.25 µg/mL
- MIC of OXA in presence of the efflux inhibitor ([4]; inhibitor 80 μM): 2,048 μg/ml
- MIC of TET in presence of the efflux inhibitor ([4]; inhibitor 80 μM): 16 µg/mL
- MIC of EtBr in presence of the efflux inhibitor ([4]; inhibitor 160 μM): 512 µg/mL
- MIC of OFX in presence of the efflux inhibitor ([4]; inhibitor 160 μM): 0.25 µg/mL
- MIC of OXA in presence of the efflux inhibitor ([4]; inhibitor 160 μM): 2,048 μg/ml
- MIC of TET in presence of the efflux inhibitor ([4]; inhibitor 160 μM): 16 µg/mL
- decrease in OFX MIC ([4]; inhibitor 80 and 160 µM): 4 fold
- decrease in TET MIC ([4]; inhibitor 80 and 160 µM): 4 fold
- inhibition of EtBr efflux ([5]; AG100, AG100A and AG100tet (Fig. 2), 80 μM (20 μM for AG100A), glucose, 37 °C): inhibited
- EtBr fluorescence (Channel Cycling A.530/585hp) ([5]; cycle 1): 14.1835
- EtBr fluorescence (Channel Cycling A.530/585hp) ([5]; cycle 2): 12.9442
- EtBr fluorescence (Channel Cycling A.530/585hp) ([5]; cycle 3): 12.1458
- EtBr fluorescence (Channel Cycling A.530/585hp) ([5]; cycle 9): 9.004
- EtBr fluorescence (Channel Cycling A.530/585hp) ([5]; cycle 10): 8.5432
- EtBr fluorescence (Channel Cycling A.530/585hp) ([5]; cycle 11): 8.357
- EtBr fluorescence (Channel Cycling A.530/585hp) ([5]; cycle 12): 8.087
- EtBr fluorescence (Channel Cycling A.530/585hp) ([5]; cycle 13): 7.737
- EtBr fluorescence (Channel Cycling A.530/585hp) ([5]; cycle 14): 7.571
- EtBr fluorescence (Channel Cycling A.530/585hp) ([5]; cycle 15): 7.486
- EtBr fluorescence (Channel Cycling A.530/585hp) ([5]; cycle 16): 7.363
- EtBr fluorescence (Channel Cycling A.530/585hp) ([5]; cycle 17): 7.106
- EtBr fluorescence (Channel Cycling A.530/585hp) ([5]; cycle 18): 6.949
- EtBr fluorescence (Channel Cycling A.530/585hp) ([5]; cycle 19): 6.811
- EtBr fluorescence (Channel Cycling A.530/585hp) ([5]; cycle 20): 6.647
- EtBr fluorescence (Channel Cycling A.530/585hp) ([5]; cycle 21): 6.6451
- EtBr fluorescence (Channel Cycling A.530/585hp) ([5]; cycle 22): 6.375
- EtBr fluorescence (Channel Cycling A.530/585hp) ([5]; cycle 23): 6.294
- EtBr fluorescence (Channel Cycling A.530/585hp) ([5]; cycle 24): 6.27
- EtBr fluorescence (Channel Cycling A.530/585hp) ([5]; cycle 25): 6.171
- EtBr fluorescence (Channel Cycling A.530/585hp) ([5]; cycle 26): 6.0708
- EtBr fluorescence (Channel Cycling A.530/585hp) ([5]; cycle 27): 5.906
- EtBr fluorescence (Channel Cycling A.530/585hp) ([5]; cycle 28): 5.869
- EtBr fluorescence (Channel Cycling A.530/585hp) ([5]; cycle 29): 5.816
- EtBr fluorescence (Channel Cycling A.530/585hp) ([5]; cycle 30): 5.711
- EtBr fluorescence (Channel Cycling A.530/585hp) ([5]; cycle 31): 5.67
- EtBr fluorescence (Channel Cycling A.530/585hp) ([5]; cycle 32): 5.576
- EtBr fluorescence (Channel Cycling A.530/585hp) ([5]; cycle 33): 5.469
- EtBr fluorescence (Channel Cycling A.530/585hp) ([5]; cycle 34): 5.4
- EtBr fluorescence (Channel Cycling A.530/585hp) ([5]; cycle 35): 5.309
- EtBr fluorescence (Channel Cycling A.530/585hp) ([5]; cycle 36): 5.284
- EtBr fluorescence (Channel Cycling A.530/585hp) ([5]; cycle 37): 5.241
- EtBr fluorescence (Channel Cycling A.530/585hp) ([5]; cycle 38): 5.208
- EtBr fluorescence (Channel Cycling A.530/585hp) ([5]; cycle 39): 5.097
- EtBr fluorescence (Channel Cycling A.530/585hp) ([5]; cycle 40): 5.016
- EtBr fluorescence (Channel Cycling A.530/585hp) ([5]; cycle 41): 5.035
- EtBr fluorescence (Channel Cycling A.530/585hp) ([5]; cycle 42): 4.981
- EtBr fluorescence (Channel Cycling A.530/585hp) ([5]; cycle 43): 4.838
- EtBr fluorescence (Channel Cycling A.530/585hp) ([5]; cycle 44): 4.747
- MIC of EtBr in presence of the efflux inhibitor ([6]; AG100A, inhibitor 40 μM): 0.39 µg/mL
- MIC of OFX in presence of the efflux inhibitor ([6]; AG100A, inhibitor 40 μM): 0.03 µg/mL
- MIC of OXA in presence of the efflux inhibitor ([6]; AG100A, inhibitor 40 μM): 1 µg/mL
- MIC of TET in presence of the efflux inhibitor ([6]; AG100A, inhibitor 40 μM): 0.25 µg/mL
- effect on the MIC of the antibiotics ([6]; AG100A, inhibitor 40 μM): no effect
- reduction in EtBr MIC ([6]; AG100A, inhibitor 40 μM): ≈ 8 fold
- growth of AG100A in presence of the inhibitor ([6]; concentrations above 40 µM): did not grow
